Data published in US6800621B2, “Imidazo[4,5-b]-pyridiniummethyl-containing cephem compounds having broad antibacterial spectrum activity” (Shionogi & Co., Ltd., priority 1998, dated 2004).
Values after ≈ are worked out from the molar mass of the structure shown. Like-named read-outs stand apart in the source and are kept apart here.

What was measured:
[1] = system: S.aureus SR3637; assay: ED50 mouse/S.aureus SR3637; assay type: in vivo
[2] = system: S.marvescens ATCC 13880; assay: MIC by agar dilution method; assay type: cell-based; settings: S.marvescens ATCC 13880, G(−)
Method: (§1) The minimal inhibitory concentration (MIC) of compound (I) against various bacteria was determined by an agar dilution method. As reference compounds, used were cefozopran hydrochloride (CZOP) described in JP(A) Kokai H03-47189, cefoselis sulfate (CFSL) described in JP(A) Kokai H07-196665 and WO97/41128, compound A of which 3-side chain is a type of imidazo[4,5-c]pyridiniummethyl, and vancomycin. In the table, “Ex5-3”, for example, represents the end compound of the present invention obtained in Example 5-3, and the others are similarly expressed.

[3] = system: E.cloacae ATCC 13047; assay: MIC by agar dilution method; assay type: cell-based; settings: E.cloacae ATCC 13047, G(−)
Method: as §1

[4] = system: S.aureus SR3626; assay: MIC by agar dilution method; assay type: cell-based
Method: as §1

[5] = system: E.coli SR5028; assay: MIC by agar dilution method; assay type: cell-based; settings: E.coli SR5028, G(−)
Method: as §1

[6] = system: S.pneumoniae Type 1; assay: MIC by agar dilution method; assay type: cell-based
Method: as §1

[7] = system: P.aeruginosae SR5393; assay: MIC by agar dilution method; assay type: cell-based; settings: P.aeruginosae SR5393, G(−)
Method: as §1

[8] = system: S.aureus SR3637; assay: MIC by agar dilution method; assay type: cell-based
Method: as §1

[9] = system: P.vulgaris CN-329; assay: MIC by agar dilution method; assay type: cell-based; settings: P.vulgaris CN-329, G(−)
Method: as §1

[10] = system: S.mitis SR16376; assay: MIC by agar dilution method; assay type: cell-based
Method: as §1

[11] = system: E.faecalis SR1004; assay: MIC by agar dilution method; assay type: cell-based; settings: E.faecalis SR1004, G(+)
Method: as §1

[12] = system: S.aureus SR14; assay: MIC by agar dilution method; assay type: cell-based
Method: as §1

[13] = system: S.aureus SMITH; assay: MIC by agar dilution method; assay type: cell-based
Method: as §1

[14] = system: E.cloacae SR4321; assay: MIC by agar dilution method; assay type: cell-based; settings: E.cloacae SR4321, G(−)
Method: as §1

[15] = system: P.aeruginosa SR24; assay: MIC by agar dilution method; assay type: cell-based; settings: P.aeruginosa SR24, G(−)
Method: as §1

[16] = system: E.coli NIH JC-2; assay: MIC by agar dilution method; assay type: cell-based; settings: E.coli NIH JC-2, G(−)
Method: as §1

[17] = system: S.pneumoniae SR16675; assay: MIC by agar dilution method; assay type: cell-based
Method: as §1

| Structure (SMILES) | ED50 [1] [mg/kg] | MIC [2] [µg/mL] | MIC [3] [µg/mL] | MIC ([4]; S.aureus SR3626 (MRSA), G(+)) [µg/mL] | MIC [5] [µg/mL] | MIC ([6]; S.pneumoniae Type 1, G(+)) [µg/mL] | MIC [7] [µg/mL] | MIC ([8]; S.aureus SR3637 (MRSA), G(+)) [µg/mL] | MIC [9] [µg/mL] | MIC ([10]; S.mitis SR16376, G(+)) [µg/mL] | MIC [11] [µg/mL] | MIC ([12]; S.aureus SR14, G(+)) [µg/mL] | MIC ([13]; S.aureus SMITH, G(+)) [µg/mL] | MIC [14] [µg/mL] | MIC [15] [µg/mL] | MIC [16] [µg/mL] | MIC ([17]; S.pneumoniae SR16675, G(+)) [µg/mL] | also measured |
| --- | --- | --- | --- | --- | --- | --- | --- | --- | --- | --- | --- | --- | --- | --- | --- | --- | --- | --- |
| Cl.NCCCn1cnc2c1ccc[n+]2CC1=C(C(=O)[O-])N2C(=O)C(NC(=O)C(=NOCF)c3nsc(N)n3)C2SC1 (centres unmarked) [Ex5-3] | 5.66 | 0.1 | 0.39 | 3.13 | 1.56 | 0.025 | 6.25 | 3.13 | 0.39 | 0.2 | 100 | 0.78 | 0.78 | 12.5 | 1.56 | 0.1 | 0.78 |  |
| CCON=C(C(=O)NC1C(=O)N2C(C(=O)[O-])=C(C[n+]3cccc4c3ncn4CCCNC)CSC12)c1nsc(N)n1.Cl (centres unmarked) [Ex6-2] | 7.92 | 0.39 | 0.78 | 3.13 | 3.13 | 0.025 | 6.25 | 3.13 | 0.78 | 0.1 | 50 | 1.56 | 1.56 | 25 | 1.56 | 0.39 | 0.78 |  |
| CNCCCn1cnc2c1ccc[n+]2CC1=C(C(=O)[O-])N2C(=O)C(NC(=O)C(=NOCF)c3nsc(N)n3)C2SC1.Cl (centres unmarked) [Ex6-3] | 6.43 | 0.2 | 0.78 | 6.25 | 1.56 | 0.025 | 6.25 | 6.25 | 0.39 | 0.2 | 50 | 0.78 | 0.78 | 12.5 | 3.13 | 0.2 | 0.78 |  |
| CN[C@H](CC(C)C)C(=O)N[C@H]1C(=O)N[C@@H](CC(N)=O)C(=O)N[C@H]2C(=O)N[C@H]3C(=O)N[C@H](C(=O)N[C@H](C(=O)O)c4cc(O)cc(O)c4-c4cc3ccc4O)[C@H](O)c3ccc(c(Cl)c3)Oc3cc2cc(c3O[C@@H]2O[C@H](CO)[C@@H](O)[C@H](O)[C@H]2O[C@H]2C[C@](C)(N)[C@H](O)[C@H](C)O2)Oc2ccc(cc2Cl)[C@H]1O [VCM, vancomycin, reference compound] |  |  |  |  |  |  |  |  |  |  |  |  |  |  |  |  |  | ED50 ([1]; Staphylococcus aureus, read-out: ED50): 5.66 mg/kg; MIC ([4]; Staphylococcus aureus, MRSA): 3.13 µg/mL (≈ 2.16 µM); MIC ([6]; Streptococcus pneumoniae, TYPE1): 0.39 µg/mL (≈ 0.269 µM); MIC ([8]; Staphylococcus aureus, MRSA): 3.13 µg/mL (≈ 2.16 µM); MIC ([10]; Streptococcus mitis, SR16376): 0.39 µg/mL (≈ 0.269 µM); MIC ([12]; Staphylococcus aureus, SR14): 0.78 µg/mL (≈ 0.538 µM); MIC ([13]; Staphylococcus aureus): 0.78 µg/mL (≈ 0.538 µM); MIC ([17]; Streptococcus pneumoniae, SR16675): 0.2 µg/mL (≈ 0.138 µM) |
